Laboratory results taken from PubChem BioAssay AID179 (DTP/NCI, 2004).
pEC50, pIC50: −log10 of the molar value. Several values for one entry are separate records, joined by “and”; a condition that tells them apart may be missing. Identical values can stand only once. Activity calls are given as the source filed them.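 Rule for the calls: active = compounds giving half or more protection of infected cells from virus-caused growth loss, again on retest; inactive = the rest.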 Where a SMILES comes first, the peptide text is derived from it.

Tested on: CEM cells HIV-1 protection, formazan growth assay
Test: NCI AIDS Antiviral Assay
Conditions: for pIC50: measured here: growth of uninfected CEM cells
Outline: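 Category rules: moderately active means at least 50% protection on retest, and confirmed active means 100% protection reproducibly. The underlying data came from a formazan growth assay in HIV-1-infected CEM cells.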

COc1cccc(NC(=O)CSc2nnc(-c3ccc(N=Cc4ccc(Cl)cc4)cc3)o2)c1
pEC50: < 4.12 | pIC50: 4.60

NS(=O)(=O)c1ccc(NC(=S)/N=C/c2c(O)c3ccccc3[nH]c2=O)cc1
pEC50: < 3.70 | pIC50: < 3.70

C/C(=N\OC(=O)Nc1ccccc1)c1ccccc1
pEC50: < 3.70 | pIC50: 3.88

O=C(Cc1ccccc1)NN1C(=O)C(Cl)C1c1ccccc1O (centres undefined)
pEC50: < 4.11 | pIC50: 4.61

Clc1ccc(Nc2nc(Cl)c3[nH]cnc3n2)cc1Cl
pEC50: < 3.70 | pIC50: 4.20

OC1c2ccccc2CCC1C(O)(C(F)(F)F)C(F)(F)F (centres undefined)
pEC50: < 3.70 | pIC50: 4.07

N#CC(Sc1ccccc1)c1ccccc1 (centres undefined)
pEC50: < 4.35 | pIC50: < 4.35

CC(C)OP(=O)(CCCCCCCCC/C=C/c1ccc2c(c1)OCCOCCOCCOCCO2)OC(C)C
pEC50: < 3.70 | pIC50: 4.91

COc1ccccc1NC(=O)C(C#N)=C(SC)SC
pEC50: < 3.70 | pIC50: 5.05

Cc1cn(C2CC(O)C(CNC(=O)N(O)C3CC(n4cc(C)c(=O)[nH]c4=O)OC3CO)O2)c(=O)[nH]c1=O (centres undefined)
pEC50: < 3.70 | pIC50: < 3.70

CCn1c(=O)c2ncnnc2n(CC)c1=O
pEC50: < 3.70 | pIC50: < 3.70

NC(=O)/C(=N\NC(=O)C[n+]1ccccc1)C1NC(=O)NC1=O (centres undefined)
pEC50: < 3.83 | pIC50: < 3.83

COC(=O)C1=C(C)C(=O)C2(CCCCCC2C(=O)OC)C1 (centres undefined)
pEC50: < 3.70 | pIC50: < 3.70

N#CCCC(CC#N)S(=O)(=O)O (centres undefined)
pEC50: < 3.70 | pIC50: < 3.70

CC(=O)OC1CC2C(=O)CC1(C)C2(C)C (centres undefined)
pEC50: < 3.70 | pIC50: < 3.70

COC(=O)c1cc2cc(O)c(O)cc2cn1
pEC50: < 3.70 | pIC50: < 5.08 and 4.92

CCN(CC)CC[NH-].O=C([O-])C(=O)[O-].O=C([O-])C(=O)[O-].[Co+3].[K+]
pEC50: < 3.70 | pIC50: 3.83

CS(=O)(=O)ON1C(=O)c2ccc(N)cc2C1=O
pEC50: < 3.43 | pIC50: 3.55

CCOC(=O)/C(C#N)=C/c1ccc(C#N)cc1
pEC50: < 4.64 | pIC50: < 4.64

COc1ccc(-n2nc(C)cc(N)c2=O)cc1
pEC50: < 2.97 | pIC50: < 2.97

CCOC(=O)c1c(OCCCc2ccc(F)cc2)cc2ccc3ccccc3c2c1OCCCc1ccc(F)cc1
pEC50: < 4.74 | pIC50: < 4.74

c1ccc2c3c([nH]c2c1)C1C2CCCCN2C(c2ccncc2)N1CC3 (centres undefined)
pEC50: < 4.12 | pIC50: 4.37

COc1ccc(N2C(=O)c3cccnc3S2(=O)=O)cc1
pEC50: < 3.70 | pIC50: < 3.70

COC(=O)C(=O)C(C(=O)C1=NS(=O)(=O)c2cc(S(N)(=O)=O)c(Cl)cc2N1)c1nc2ccc(C(=O)c3ccccc3)cc2[nH]c1=O (centres undefined)
pEC50: < 3.71 | pIC50: 4.31

Clc1cccc2c(N3CC3)cnnc12
outcome: inactive

Cc1ccccc1NC(=O)C(=O)C(C1OC(=O)c2ccccc21)[N+](=O)[O-] (centres undefined)
pEC50: < 3.15 | pIC50: 3.47

COC(=O)c1c(C)cccc1C1CN=NC12Cc1cc(C)cc(C)c1C2=O (centres undefined)
pEC50: < 3.70 | pIC50: 4.48

CC(=O)[CH-]C(C)=O.CC(=O)[CH-]C(C)=O.CCCNCCN.[Cr+5].[O-][Cl+3]([O-])([O-])[O-]
pEC50: < 3.70 | pIC50: < 3.70

COc1ncnc2c1ncn2C1CC(O)C(CO)(C(F)(F)F)O1 (centres undefined)
pEC50: < 3.70 | pIC50: < 3.70

Cc1cc2c(=O)c3ccccc3[nH]c2c(C(N)=O)c1C
outcome: inactive

CC(C)CC(NC(=O)C(Cc1ccc(O)cc1)NC(=O)C(CO)NC(=O)C(C)NC(=O)C(CCCN=C(N)N)NC(=O)C(CCC(=O)O)NC(=O)C(NC(=O)C(N)CCC(=O)O)C(C)C)C(=O)NC(CO)C(=O)NC(CCCCN)C(=O)O (centres undefined) (H-EVERASYLSK-OH; configuration not given here)
outcome: inactive

COc1c(Cl)cc(C(=O)c2cc(Cl)c(OC)c(C(=O)O)c2)cc1C(=O)O
pEC50: < 3.04 | pIC50: < 3.04

CNS(=O)(=O)NNS(=O)(=O)c1cccc([N+](=O)[O-])c1
pEC50: < 4.08 | pIC50: < 4.08

COc1cccc2c1OC1(C=C2)Oc2ccccc2C(=O)N1C (centres undefined)
pEC50: < 3.70 | pIC50: 4.51

CC1(c2ccccc2)CC(c2cccc([N+](=O)[O-])c2)=NO1 (centres undefined)
outcome: inactive | pIC50: 4.36

C=CC[C@]1(C(C)C(OC(C)=O)c2ccc3c(c2)OCO3)C[C@@H](OC)C=CC1=O (some centres undefined)
pEC50: < 4.70 | pIC50: 5.83

COc1ccc(SSc2ccc(OC)n[n+]2[O-])[n+]([O-])n1
pEC50: < 3.70 | pIC50: 6.00

CC(=O)c1c(O)c2ccc(Cl)cc2[nH]c1=O
pEC50: < 3.70 | pIC50: 4.47

CN(C)c1cc[n+](-c2nc(/N=C(\[O-])C(F)(F)F)nc3c2ncn3C2CC(O)C(CO)O2)cc1 (centres undefined)
pEC50: < 3.70 | pIC50: < 3.70

CCCCCCCCCCCCN(CCCCCCCCCCCC)CC(=O)Nc1ccc(S(=O)(=O)c2ccc(NC(=O)CN(CCCCCCCCCCCC)CCCCCCCCCCCC)cc2)cc1
pEC50: < 4.30 | pIC50: 5.59

O=C1NC(=O)/C(=C/c2ccc(S(=O)(=O)N/N=C\C(O)C(O)C(O)C(O)CO)cc2)N1 (centres undefined)
pEC50: < 3.70 | pIC50: 3.90 and < 3.70

CCOC(=O)/C(N=O)=C(/O)CC(C)C
pEC50: < 3.70 | pIC50: < 3.70

Cc1ccc(/C=N/Nc2nncc3ccccc23)s1
pEC50: < 3.70 | pIC50: < 3.70

CN(C)C(F)=PC(F)(F)F (centres undefined)
pEC50: < 3.60 | pIC50: < 3.60

NC(CCC(=O)NC(CSSCCCCS(=O)O)C(=O)NCC(=O)O)C(=O)O (centres undefined)
outcome: inactive

O=c1ccc2c([N+](=O)[O-])cc([N+](=O)[O-])c(O)c2[nH]1
outcome: inactive

COc1ccc(/C=C2\CN(C)CC3C2=NN(c2ccccc2)C3c2ccc(OC)cc2)cc1 (centres undefined)
pEC50: < 3.70 | pIC50: < 3.70

Cc1nc(=O)n2c(c1C(=O)Nc1ccc(Cl)cc1)NCC2
outcome: inactive

CC1(C)OC(=O)c2cc(C(=CCCBr)c3cc(Cl)c4c(c3)C(=O)OC(C)(C)O4)cc(Cl)c2O1
pEC50: < 4.00 | pIC50: 4.38

COC(=O)C1CCC(=O)N1C(c1ccc2c(c1)OCO2)c1ccc2c(c1)OCO2 (centres undefined)
pEC50: < 3.70 | pIC50: 3.83

COc1ccc(C(=O)c2ccccc2O)c(O)c1
pEC50: < 3.70 | pIC50: < 4.00

CCCC(C)(O)CCC(O)(CCC)CCC (centres undefined)
pEC50: < 3.70 | pIC50: < 3.70

O=[As]O
outcome: inactive

CC(C)c1ccccc1SCc1cc(=O)cc(CSc2ccccc2C(C)C)o1
pEC50: < 3.70 | pIC50: 4.93

C=C(C)CN1C(=O)C(C)S/C1=N/N=C1/SCC(=O)N1C (centres undefined)
pEC50: < 4.37 | pIC50: < 4.37

COc1cc(C(O)C2C(=O)OCC2C2(c3ccc4c(c3)OCO4)SCCCS2)cc(OC)c1OC (centres undefined)
pEC50: < 4.44 | pIC50: < 4.44

FC1=C2CCCCCC2SC1(F)F (centres undefined)
pEC50: < 3.70 | pIC50: 4.49

NC(=O)N/N=C(\Cc1cc(=O)oc2cc(O)ccc12)C(=O)Nc1ccccc1C(N)=O
pEC50: < 4.49 | pIC50: < 4.49

CSc1s[s+]c(SC)c1[O-]
outcome: inactive

CCCCCCCCCC=C(c1cc(Cl)c(O)c(C(=O)O)c1)c1cc(Cl)c(O)c(C(=O)O)c1
pEC50: 4.34 | pIC50: 4.31

S=c1[nH]nc(-c2ccccc2)n1/N=C\c1ccc(-c2ccc(Cl)cc2)o1
pEC50: < 5.28 | pIC50: < 5.28

S=C(N/N=C\C=N/NC(=S)N1CCCCC1)N1CCCCC1
pEC50: < 5.70 | pIC50: 6.44

CN(C)c1ccc2c(c1)-c1cc(N(C)C)ccc1C2=CC=C1C(=O)NC(=S)NC1=O
pEC50: < 4.91 | pIC50: < 4.91

COc1ccc(/C=C/c2cc(OC)c(OC)c(OC)c2)cc1O[Si](C)(C)C(C)(C)C
pEC50: < 5.06 | pIC50: 6.32

COCCCCCCCCCCC(=O)O
pEC50: < 3.70 | pIC50: < 3.70

CSc1nc(N)c2c(n1)NCNS2(=O)=O
pEC50: < 3.00 | pIC50: < 3.00

CC(NC(=O)C(N)CCC(=O)O)C(=O)NCP(=O)(O)O (centres undefined)
pEC50: < 3.70 | pIC50: < 3.70

CC(=O)N1C(=O)C(=O)c2cc(Cl)ccc21
outcome: inactive

C[Si](C)(C)C#CC#C[Si](C)(C)C.[Ni].[Ni].[Ni].[Ni].[c-]1[c-][c-][cH-][c-]1.[c-]1[c-][c-][cH-][c-]1.[c-]1[c-][c-][cH-][c-]1.[c-]1[c-][c-][cH-][c-]1
pEC50: < 5.68 | pIC50: < 5.68

C[N+]1(CCCl)CCc2ccc([N+](=O)[O-])cc2C1 (centres undefined)
pEC50: < 3.70 | pIC50: < 3.70

Cc1sccc1C(=S)Nc1ccc(Cl)c(/C=N/OC(C)(C)C)c1
pEC50: 4.85 | pIC50: 4.83

O=C(CCCC[n+]1ccccc1)Sc1ccccc1C(=O)Nc1ccc(S(=O)(=O)Nc2cnc3ccccc3n2)cc1
pEC50: 4.91 | pIC50: 4.72

COc1cc(C)cc2c(-c3c(O)cc(O)c4c3CC(C)N[C@H]4C)cc(-c3cc(-c4c(O)cc(O)c5c4CC(C)N[C@H]5C)c4cc(C)cc(OC)c4c3O)c(O)c12 (some centres undefined)
pEC50: 4.42 | pIC50: 3.78

COC(=O)/C=C1\C(CO[Si](C)(C)C(C)(C)C)OC(n2ccc(=O)[nH]c2=O)C1O[Si](C)(C)C(C)(C)C (centres undefined)
pEC50: < 3.70 | pIC50: 5.08

O=C(c1ccccc1)[C@H]1Nc2cnccc2C2c3ccccc3CC21 (some centres undefined)
pEC50: < 4.51 | pIC50: < 4.51

Cc1cn(C2CC(N)C(CN)O2)c(=O)[nH]c1=O (centres undefined)
pEC50: < 3.70 | pIC50: < 3.70

CCCCCCCCCCCc1c(O)c(O)cc2nc3cc(C(=O)NC(C(=O)O)C(C)C)ccc3nc12 (centres undefined)
pEC50: < 4.85 | pIC50: < 4.85

O/N=C1/C(=C/c2ccc(Cl)c(Cl)c2)CCCC1C(NO)c1ccc(Cl)c(Cl)c1 (centres undefined)
pEC50: < 5.50 | pIC50: < 5.50

COc1ccc(N2C(=O)C3c4[nH]c5ccc(C)cc5c4C4CCC(C(C)C)CC4C3C2=O)cc1 (centres undefined)
outcome: inactive

CN(C)CCCNc1cc[n+](C)c2cccc([N+](=O)[O-])c12
pEC50: < 3.70 | pIC50: 4.98

CC1(C)CCC[C@@]2(C)C1CC[C@H]1CC(O)C3(C)CCC12C3 (some centres undefined)
pEC50: < 4.91 | pIC50: < 4.91

Fc1ccc2nncc(SCc3ccc(Cl)cc3)c2c1
pEC50: < 4.06 | pIC50: < 4.06

CC(=O)OC(C)(C)/C=C/C(=O)[C@](C)(O)[C@H]1[C@H](O)C[C@@]2(C)[C@@H]3CC=C4[C@@H](C=C(O)C(=O)C4(C)C)[C@]3(C)C(=O)C[C@]12C
pEC50: < 6.70 | pIC50: 8.17

Cc1cc(S(=O)(=O)NC2=NCCCN2)c(S)cc1Cl
pEC50: < 3.59 | pIC50: 4.19

COc1cc(O)c2c(c1)C(=O)C=C(Cl)C2=O
outcome: inactive
